Source: patent US8927484B2, “Antiviral compounds” (Gilead Sciences, Inc., priority 2009, dated 2015)

Test system: Replicon cells harboring H77 (genotype 1a) or Con1 (genotype 1b) HCV RNA and Renilla luciferase reporter
Test: High Throughput Replicon Assay (HTBS)
Type: cell-based
Settings: 72 h, read-out: INH @1 μM (Mean)
Method: High Throughput Replicon Assay (HTBS)
Replicon cells harboring H77 (genotype 1a) or Con1 (genotype 1b) HCV RNA and Renilla luciferase reporter were seeded in 384-well black plates at a density of 1.6×10^3 cells per well in 90 μl of DMEM culture medium, excluding G-418. Compounds were serially diluted in 100% DMSO and added to cells at a 1:225 dilution, achieving a final concentration of 0.44% DMSO in a total volume of 90 μL with a Biotek uFlow Workstation. Cell plates were incubated at 37° C. with 5% CO2 for 3 days, after which culture media were removed and cells were assayed for luciferase activity as a marker for replication level. Luciferase expression was measured using Dual-Glo luciferase assay reagents (Promega, Madison, Wis.). Briefly, 20 μL of Dual-Glo luciferase buffer was added to lyse the cells for 10 min and subsequently 20 μL of a diluted Dual-Glo Stop & Glo substrate (1:100) was added to each well. Luminescence signal was measured on a Perkin Elmer Envision Plate Reader after incubation for 10 minute. Luciferase levels were converted into percentages relative to the untreated controls (defined as 100%) and data were fit to the logistic dose response equation y=a/(1+(x/b)^c) using XLFit4 software (IDBS, Emeryville, Calif.). EC50 values were calculated from the resulting equations.

SMILES	inhibition at 1 µM [%]
CC[C@@H]1C[C@]1(NC(=O)[C@@H]1C[C@@H](Oc2cc(-c3nc(C(C)C)cs3)nc3c(Cl)c(OCC(OC)OC)ccc23)[C@H]2CN(C(=O)OC(C)(C)C)[C@H](C(C)C)C(=O)N21)C(=O)NS(=O)(=O)C1CC1 [Example 13]	> 99
CC[C@@H]1C[C@]1(NC(=O)[C@@H]1C[C@@H](Oc2cc(-c3nc(C(C)C)cs3)nc3c(C)c(OC)ccc23)[C@H]2CN(C(=O)OC(C)(C)C)[C@H](C(C)C)C(=O)N21)C(=O)NS(=O)(=O)C1CC1 [Example 59]	> 45
CC[C@@H]1C[C@]1(NC(=O)[C@@H]1C[C@@H](Oc2cc(-c3nc(C(C)C)cs3)nc3c(Cl)c(OCCN4CCOCC4)ccc23)[C@H]2CN(C(=O)OC(C)(C)C)[C@H]([C@@H](C)CC)C(=O)N21)C(=O)NS(=O)(=O)C1CC1 [Example 42]	> 95
C=C[C@@H]1C[C@]1(NC(=O)[C@@H]1C[C@@H](Oc2cc(-c3nc(C(C)C)cs3)nc3c(Cl)c(OCCN4CCOCC4)ccc23)[C@H]2CN(C(=O)CC(C)(C)C)[C@H](C(C)C)C(=O)N21)C(=O)NS(=O)(=O)C1CC1 [Example 19]	> 55
C=C[C@@H]1C[C@]1(NC(=O)[C@@H]1C[C@@H](Oc2cc(-c3cccc(C(C)C)n3)nc3c(Cl)c(OC)ccc23)[C@H]2CN(C(=O)OC(C)(C)C)[C@H](C(C)C)C(=O)N21)C(=O)NS(=O)(=O)C1CC1 [Example 21]	> 99
C=C[C@@H]1C[C@]1(NC(=O)[C@@H]1C[C@@H](Oc2cc(-c3nc(C(C)C)cs3)nc3c(Cl)c(OCCN4CCOCC4)ccc23)[C@H]2CN(C(=O)OC(C)(C)C)[C@H]([C@H](C)CC)C(=O)N21)C(=O)NS(=O)(=O)C1CC1 [Example 49]	> 95
C=C[C@@H]1C[C@]1(NC(=O)[C@@H]1C[C@@H](Oc2cc(-c3nc(C(C)C)cs3)nc3c(Cl)c(OCCN4CCOCC4)ccc23)[C@H]2CN(C(=O)OC(C)(C)C)[C@H](C(C)(C)OC)C(=O)N21)C(=O)NS(=O)(=O)C1CC1 [Example 34]	> 95
CC[C@@H]1C[C@]1(NC(=O)[C@@H]1C[C@@H](Oc2cc(-c3nc(C(C)C)cs3)nc3c(Cl)c(OCCN4CCOCC4)ccc23)[C@H]2CN(C(=O)OC(C)(C)C)[C@H](C3CCOCC3)C(=O)N21)C(=O)NS(=O)(=O)C1CC1 [Example 74]	> 90
C=C[C@@H]1C[C@]1(NC(=O)[C@@H]1C[C@@H](Oc2cc(-c3nc(C(C)C)cs3)nc3c(Cl)c(OCCN4CCOCC4)ccc23)[C@H]2CN(C(=O)OC(C)(C)C)C(=C(C)C)C(=O)N21)C(=O)NS(=O)(=O)C1CC1 [Example 35]	> 35
C=C[C@@H]1C[C@]1(NC(=O)[C@@H]1C[C@@H](Oc2cc(-c3nc(C(C)C)cs3)nc3c(Cl)c(OCCN4CCOCC4)ccc23)[C@H]2CN(C(=O)OC(C)(C)C)[C@H]([C@H](C)OC)C(=O)N21)C(=O)NS(=O)(=O)C1CC1 [Example 55]	> 95
C=C[C@@H]1C[C@]1(NC(=O)[C@@H]1C[C@@H](Oc2cc(-c3nc(C(C)C)cs3)nc3c(C)c(OC)ccc23)[C@H]2CN(C(=O)OC(C)(C)C)C([C@H](C)CC)C(=O)N21)C(=O)NS(=O)(=O)C1CC1 (stereo partly shown) [Example 38]	> 95
C=C[C@@H]1C[C@]1(NC(=O)[C@@H]1C[C@@H](Oc2cc(-c3nc(C(C)C)cs3)nc3c(Cl)c(OCCN4CCOCC4)ccc23)[C@H]2CN(S(C)(=O)=O)[C@H](C(C)C)C(=O)N21)C(=O)NS(=O)(=O)C1CC1 [Example 16]	> 25
C=C[C@@H]1C[C@]1(NC(=O)[C@@H]1C[C@@H](Oc2cc(-n3ccc(C(C)C)n3)nc3c(Cl)c(OCCN4CCOCC4)ccc23)[C@H]2CN(C(=O)OC(C)(C)C)[C@H](C(C)C)C(=O)N21)C(=O)NS(=O)(=O)C1CC1 [Example 30]	> 35
C=C[C@@H]1C[C@]1(NC(=O)[C@@H]1C[C@@H](Oc2cc(-c3nc(C(C)C)cs3)nc3c(Cl)c(OCCOC)ccc23)[C@H]2CN(C(=O)OC(C)(C)C)[C@H](C(C)(C)C)C(=O)N21)C(=O)NS(=O)(=O)C1CC1 [Example 22]	> 99
C=C[C@@H]1C[C@]1(NC(=O)[C@@H]1C[C@@H](Oc2cc(-c3nc(C(C)C)cs3)nc3c(Cl)c(OCCN4CCOCC4)ccc23)[C@H]2CN(C(=O)OC(C)(C)C)[C@H](C3CCOCC3)C(=O)N21)C(=O)NS(=O)(=O)C1CC1 [Example 73]	> 90
C=C[C@@H]1C[C@]1(NC(=O)[C@@H]1C[C@@H](Oc2cc(-c3nc(C(C)C)cs3)nc3c(C)c(OC)ccc23)[C@H]2CN(C)[C@H](C(C)C)C(=O)N21)C(=O)NS(=O)(=O)C1CC1 [Example 62]	> 99
CC[C@@H]1C[C@]1(NC(=O)[C@@H]1C[C@@H](Oc2cc(-c3nc(C(C)C)cs3)nc3c(C)c(OC)ccc23)[C@H]2CN(C)[C@H](C(C)C)C(=O)N21)C(=O)NS(=O)(=O)C1CC1 [Example 63]	> 40

SMILES	inhibition at 1 µM [%]
C=C[C@@H]1C[C@]1(NC(=O)[C@@H]1C[C@@H](Oc2cc(-c3nc(C(C)C)cs3)nc3c(Cl)c(OC)ccc23)[C@H]2CN(C(=O)OC(C)(C)C)[C@H](C(C)C)C(=O)N21)C(=O)NS(=O)(=O)C1CC1 [Example 8]	> 99
C=C[C@@H]1C[C@]1(NC(=O)[C@@H]1C[C@@H](Oc2cc(-c3nc(C(C)C)cs3)nc3c(Cl)c(OCCN4CCOCC4)ccc23)[C@H]2CN(C(=O)OC3CCCC3)[C@H](C(C)C)C(=O)N21)C(=O)NS(=O)(=O)C1CC1 [Example 20]	> 90
C=C[C@@H]1C[C@]1(NC(=O)[C@@H]1C[C@@H](Oc2cc(-c3csc(C(C)C)n3)nc3c(Cl)c(OC)ccc23)[C@H]2CN(C(=O)OC(C)(C)C)[C@H](C(C)(C)C)C(=O)N21)C(=O)NS(=O)(=O)C1(C)CC1 [Example 4]	> 99
CC[C@@H]1C[C@]1(NC(=O)[C@@H]1C[C@@H](Oc2cc(-c3nc(C(C)C)cs3)nc3c(Cl)c(OCCN4CCOCC4)ccc23)[C@H]2CN(C(=O)OC(C)(C)C)[C@H]([C@H](C)CC)C(=O)N21)C(=O)NS(=O)(=O)C1CC1 [Example 36]	> 90
CC[C@@H]1C[C@]1(NC(=O)[C@@H]1C[C@@H](Oc2cc(-c3nc(C(C)C)cs3)nc3c(Cl)c(OCCN4CCOCC4)ccc23)[C@H]2CN(C(=O)OC(C)(C)C)[C@H](C(C)C)C(=O)N21)C(=O)NS(=O)(=O)C1CC1 [Example 11]	> 50
C=C[C@@H]1C[C@]1(NC(=O)[C@@H]1C[C@@H](Oc2cc(-c3nc(C(C)C)cs3)nc3c(C)c(OC)ccc23)[C@H]2CN(C(=O)OC(C)(C)C)[C@H](C(C)(C)C)C(=O)N21)C(=O)NS(=O)(=O)C1CC1 [Example 24]	> 99
C=C[C@@H]1C[C@]1(NC(=O)[C@@H]1C[C@@H](Oc2cc(-c3cccc(C(C)C)n3)nc3c(Cl)c(OC)ccc23)[C@H]2CN(C(=O)OC(C)(C)C)[C@H](C(C)(C)C)C(=O)N21)C(=O)NS(=O)(=O)C1CC1 [Example 44]	> 99
C=C[C@@H]1C[C@]1(NC(=O)[C@@H]1C[C@@H](Oc2cc(-c3nc(C(C)C)cs3)nc3c(Cl)c(OCCN4CCOCC4)ccc23)[C@H]2CN(C(=O)NC(C)(C)C)[C@H](C(C)C)C(=O)N21)C(=O)NS(=O)(=O)C1CC1 [Example 18]	> 35
C=C[C@@H]1C[C@]1(NC(=O)[C@@H]1C[C@@H](Oc2cc(-c3nc(C(C)C)cs3)nc3c(C)c(OC)ccc23)[C@H]2CN(C(=O)OC(C)(C)C)[C@H](C(C)C)C(=O)N21)C(=O)NS(=O)(=O)C1CC1 [Example 58]	> 85
COc1ccc2c(O[C@@H]3C[C@H]4C(=O)N[C@]5(C(=O)NS(=O)(=O)C6CC6)C[C@H]5/C=C\CCCCC[C@@H]5C(=O)N4[C@@H]3CN5C(=O)OC(C)(C)C)cc(-c3cccc(C(C)C)n3)nc2c1Cl [Example 94]	> 99
C=C[C@@H]1C[C@]1(NC(=O)[C@@H]1C[C@@H](Oc2cc(-c3nc(C(C)C)cs3)nc3c(Cl)c(OCCN4CCOCC4)ccc23)[C@H]2CN(C(=O)OC(C)(C)C)[C@H]([C@@H](C)CC)C(=O)N21)C(=O)NS(=O)(=O)C1CC1 [Example 40]	> 75
C=C[C@@H]1C[C@]1(NC(=O)[C@@H]1C[C@@H](Oc2cc(-c3nc(C(C)C)cs3)nc3c(Cl)c(OCCN4CCOCC4)ccc23)[C@H]2CN(C(=O)OC(C)(C)C)[C@H](C(C)C)C(=O)N21)C(=O)NS(=O)(=O)C1(C)CC1 [Example 46]	> 99
C=C[C@@H]1C[C@]1(NC(=O)[C@@H]1C[C@@H](Oc2cc(-n3ccc(C(C)C)n3)nc3c(Cl)c(OCCN4CCOCC4)ccc23)[C@H]2CN(C(=O)OC(C)(C)C)[C@H](C(C)(C)C)C(=O)N21)C(=O)NS(=O)(=O)C1CC1 [Example 28]	> 99
C=C[C@@H]1C[C@]1(NC(=O)[C@@H]1C[C@@H](Oc2cc(-c3nc(C(C)C)cs3)nc3c(Cl)c(OCCN4CCOCC4)ccc23)[C@H]2CN(C(=O)OC(C)(C)C)[C@H](C(C)(C)C)C(=O)N21)C(=O)NS(=O)(=O)C1CC1 [Example 26]	> 99
CC[C@@H]1C[C@]1(NC(=O)[C@@H]1C[C@@H](Oc2cc(-c3nc(C(C)C)cs3)nc3c(Cl)c(OC)ccc23)[C@H]2CN(C(=O)OC(C)(C)C)[C@H](C(C)C)C(=O)N21)C(=O)NS(=O)(=O)C1CC1 [Example 6]	> 99
C=C[C@@H]1C[C@]1(NC(=O)[C@@H]1C[C@@H](Oc2cc(-c3nc(C(C)C)cs3)nc3c(Cl)c(OCCN4CCOCC4)ccc23)[C@H]2CN(C(=O)OC(C)(C)C)[C@H]([C@@H](C)OC)C(=O)N21)C(=O)NS(=O)(=O)C1CC1 [Example 54]	> 45
C=C[C@@H]1C[C@]1(NC(=O)[C@@H]1C[C@@H](Oc2cc(-c3csc(C(C)C)n3)nc3c(Cl)c(OC)ccc23)[C@H]2CN(C(=O)OC(C)(C)C)[C@H](C(C)(C)C)C(=O)N21)C(=O)NS(=O)(=O)C1CC1 [Example 2]	> 99
